Target: T1, human CRF receptors (Homo sapiens, UniProt P34998)
T1 construct: expressed in transfected cells
T1 sequence (P34998 24-415): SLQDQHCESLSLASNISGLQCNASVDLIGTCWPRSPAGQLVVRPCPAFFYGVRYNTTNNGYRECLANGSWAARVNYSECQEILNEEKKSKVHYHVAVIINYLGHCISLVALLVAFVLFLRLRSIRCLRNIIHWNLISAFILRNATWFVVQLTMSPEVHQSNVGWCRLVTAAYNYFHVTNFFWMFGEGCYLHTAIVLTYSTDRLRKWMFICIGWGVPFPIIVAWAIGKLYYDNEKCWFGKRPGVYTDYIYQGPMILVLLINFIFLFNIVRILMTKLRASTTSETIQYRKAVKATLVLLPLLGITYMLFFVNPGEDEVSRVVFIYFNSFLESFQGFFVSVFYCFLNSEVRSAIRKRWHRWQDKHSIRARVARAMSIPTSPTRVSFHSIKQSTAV
Assay: standard radioligand binding assay: displacement of radiolabeled CRF ligand from the CRF receptor
Conditions: Table 7 title: Ki ≤ 250 nM; cells stably transfected with human CRF receptors; [125I]tyrosine-ovine CRF ~200 pM; 2 hours at 22° C.
From the text: The effectiveness of a compound as a CRF receptor antagonist may be determined by various assay methods. Suitable CRF antagonists of this invention are capable of inhibiting the specific binding of CRF to its receptor and antagonizing activities associated with CRF. A compound of structures I through VI may be assessed for activity as a CRF antagonist by one or more generally accepted assays for this purpose, including (but not limited to) the assays disclosed by DeSouza et al. (J. Neuroscience 7:88, 1987) and Battaglia et al. (Synapse 1:572, 1987). […] CRF receptor affinity may be determined by binding studies that measure the ability of a compound to inhibit the binding of a radiolabeled CRF (e.g., [^125 I]tyrosine-CFR) to its receptor (e.g. receptors prepared from rat cerebral cortex membranes). The radioligand binding assay described by DeSouza et al. (supra, 1987) provides an assay for determining a compound's affinity for the CRF receptor. Such activity is typically calculated from the IC50 as the concentration of a compound necessary to displace 50% of the radiolabeled ligand from the receptor, and is reported as a "Ki " value calculated by the following equation: [formula] where L=radioligand and KD =affinity of radioligand for receptor (Cheng and Prusoff, Biochem. Pharmacol. 22:3099, 1973).
Compounds were evaluated for binding activity to the CRF receptor by a standard radioligand binding assay as generally described by DeSouza et al. (J. Neurosci. 7:88-100, 1987). By utilizing various radiolabeled CRF ligands, the assay may be used to evaluate the binding activity of the compounds of the present invention with any CRF receptor subtype. Briefly, the binding assay involves the displacement of a radiolabeled CRF ligand from the CRF receptor.
More specifically, the binding assay was performed in 1.5 ml Eppendorf tubes using approximately 1×10^6 cells per tube stably transfected with human CRF receptors. Each tube received about 0.1 ml of assay buffer (e.g., Dulbecco's phosphate buffered saline, 10 mM magnesium chloride, 20 μM bacitracin) with or without unlabeled sauvagine, urotensin I or CRF (final concentration, 1 μM) to determine nonspecific binding, 0.1 ml of [^125 ] tyrosine--ovine CRF (final concentration ~200 pM or approximately the KD as determined by Scatchard analysis) and 0.1 ml of a membrane suspension of cells containing the CRF receptor. The mixture was incubated for 2 hours at 22° C. followed by the separation of the bound and free radioligand by centrifugation. Following two washes of the pellets, the tubes were cut just above the pellet and monitored in a gamma counter for radioactivity at approximately 80% efficiency. All radioligand binding data was analyzed using the non-linear least-square curve-fitting program LIGAND of Munson and Rodbard (Anal. Biochem. 107:220, […]).
Binding activity corresponds to the concentration (nM) of the compound necessary to displace 50% of the radiolabeled ligand from the receptor.

Ki | Structure (SMILES)
≤ 0.25 µM | CCCN(c1nccc(-c2c(OC)cc(OC)cc2OC)n1)C(C1CC1)C1CC1 [II-22, 2-(N-dicyclopropylmethyl-N-propylamino)-4-(2',4',6'-trimethoxyphenyl)pyrimidine]
≤ 0.25 µM | CCCN(c1nccc(-c2c(C)cc(C)cc2C)n1)C(C1CC1)C1CC1 [II-24]
≤ 0.25 µM | CCCN(c1nc(N)nc(-c2c(Cl)cc(Cl)cc2Cl)n1)C(C1CC1)C1CC1 [IV-2, 2-(2',4',6'-trichlorophenyl)-4-(N-dicyclopropylmethyl-N-propylamino)-6-aminotriazine]
≤ 0.25 µM | CCCN(c1nccc(-c2c(OC)cc(Cl)cc2OC)n1)C(C1CC1)C1CC1 [II-35]
≤ 0.25 µM | CCCN(c1ncc(C)c(-c2ccc(Cl)cc2OC)n1)C(C1CC1)C1CC1 [II-32]
≤ 0.25 µM | CCCN(c1ncc(C)c(-c2ccc(Cl)cc2)n1)C(C1CC1)C1CC1 [II-7]
≤ 0.25 µM | CCCN(c1ncc(C)c(-c2ccc(Br)cc2)n1)C(C1CC1)C1CC1 [II-16, 2-(N-dicyclopropylmethyl-N-propylamino)-4-(4'-bromophenyl)-5-methylpyrimidine]
≤ 0.25 µM | CCCN(c1nccc(-c2c(Cl)cc(Cl)cc2Cl)n1)C(C1CC1)C1CC1 [II-11, 2-(N-dicyclopropylmethyl-N-propylamino)-4-(2',4',6'-trichlorophenyl)-pyrimidine]
≤ 0.25 µM | CCCN(c1nc(N)nc(-c2ccc(Cl)cc2Cl)n1)C(C1CC1)C1CC1 [IV-7]
≤ 0.25 µM | CCCN(c1ncc(C)c(-c2ccc(OC)cc2OC)n1)C(C1CC1)C1CC1 [II-39]
≤ 0.25 µM | CCCN(c1ncnc(-c2ccc(Cl)cc2Cl)n1)C(C1CC1)C1CC1 [IV-8, 2-(N-dicyclopropylmethyl-N-propylamino)-4-(2',4'-dichlorophenyl)triazine]
≤ 0.25 µM | CCCN(c1nccc(-c2ccc(OC)cc2C)n1)C(C1CC1)C1CC1 [II-43]
≤ 0.25 µM | CCCN(c1ncc(C)c(-c2c(OC)cc(OC)cc2OC)n1)C(C1CC1)C1CC1 [II-25]
≤ 0.25 µM | CCCN(c1nccc(-c2c(OC)cccc2OC)n1)C(C1CC1)C1CC1 [II-23, 2-(N-dicyclopropylmethyl-N-propyl)-4-(2',6'-dimethoxyphenyl)pyrimidine]

— patent US5795905A, “CRF receptor antagonists and methods relating thereto” (Neurocrine Biosciences, Inc., priority 1995, dated 1998)
